Results from US9918656B2, “Implantable magnetic relaxation sensors and methods of measuring a sensor's cumulative exposure to a biomarker” (Massachusetts Institute of Technology, priority 2010, dated 2018).

System: murine model
Test: Doxorubicin cardiotoxicity: change in T2 of explanted myoglobin sensors
Conditions: myoglobin sensors left in vivo for 72 h after implantation; FIG. 17
Text: FIG. 17 is a chart, illustrating data from experiments using sensors to detect the cardiotoxic effect of the drug Doxorubicin measured by change in T2 of […] sensors.
Derivatized particles were encapsulated within small diffusion devices. Polycarbonate diffusion membranes (SPI Supplies) were affixed by double-sided adhesive to one side of high-density polyethylene cylinders (thickness=1.6 mm, inner diameter=4.1 mm, outer diameter=7.9 mm). The opposing end was closed off by single-sided adhesive (3M) after the reservoir was filled with 25 μl particle solution. Devices (n=6 per animal) were implanted subcutaneously in the flank. The animals were euthanized and the devices explanted for single-sided relaxometry at specified time points. Devices were sealed with single-sided adhesive and replaced in the implant site for imaging.
The application of the sensors to discern drug cardiotoxicity was also studied. Doxorubicin is a potent anthracycline antibiotic that has found wide clinical use as a cancer chemotherapeutic. […] It was confirmed that serum myoglobin increases after doxorubicin administration in a murine model (as illustrated in FIG. 16), although at an order of magnitude lower concentration than after acute MI (10^2 ng/ml versus 10^3 ng/ml). Myoglobin sensors were thus left in vivo for 72 h after implantation (as opposed to 24 h for acute MI). […]

With `COc1cccc2c1C(=O)c1c(O)c3c(c(O)c1C2=O)C[C@@](O)(C(=O)CO)C[C@@H]3O[C@H]1C[C@H](N)[C@H](O)[C@H](C)O1` [Doxorubicin] as the compound, how does the “sensor T2, experimental versus control groups” value read?
Its value is “clear distinction in sensor T2 between the experimental and control groups”.
